For test [1], the system named is A2780 ovarian cancer cells. Description: Survival of A2780 tumor-bearing mice pretreated with chemotherapeutic, followed by AAV vector. The class given is in vivo, Balb/c nude mice. As to conditions: for Efficacy as single agents at the doses and schedules used: survival of A2780 tumor-bearing mice. The procedure: Xenografts of human ovarian cancer cells were established by administering 5 million A2780 ovarian cancer cells intraperitoneally in 6 to 8 week old female Balb/c nude mice. Survival was analyzed in the mice which were either left untreated, treated with the chemotherapeutic topotecan in combination with an AAV vector, or treated with the chemotherapeutic paclitaxel in combination with an AAV vector. To establish the topotecan-AAVrh. 10BevMab combination treatment model, 2 weeks after injection of the A2780 ovarian cancer cells, the mice were treated with topotecan at 0.625 mg/kg body weight/day, 5 times/week for 3 weeks (see, Delord et al., Ann. Oncol., 16: 1889-1897 (2005)). […] To establish the paclitaxel-AAVrh.10BevMab combination treatment model, 1 week after injection of the A2780 ovarian cancer cells, the mice were treated with paclitaxel at 20 mg/kg body weight, once/week for 2 weeks (see, Vassileva et al., Mol Cancer Ther., 7: 630-637 (2008)).

The next test relates to recurrent ovarian cancer. The following applies: single agent, patients with recurrent ovarian cancer; cited from earlier work.

Regarding `CC[C@@]1(O)C(=O)OCc2c1cc1n(c2=O)Cc2cc3c(CN(C)C)c(O)ccc3nc2-1` [Topotecan, topotecan], the “Efficacy as single agents at the doses and schedules used” value in test [1] is given as “efficacious”. Further, the Median survival in test [1] (topotecan model: 0.625 mg/kg/day, 5 times/week for 3 weeks from week 2, vector at week 5) is recorded as 50 days.
As for `CC(=O)O[C@H]1C(=O)[C@@]2(C)[C@H]([C@H](OC(=O)c3ccccc3)[C@]3(O)C[C@H](OC(=O)[C@H](O)[C@@H](NC(=O)c4ccccc4)c4ccccc4)C(C)=C1C3(C)C)[C@]1(OC(C)=O)CO[C@@H]1C[C@@H]2O` [paclitaxel], the Median survival in test [1] (paclitaxel model: 20 mg/kg once/week for 2 weeks from week 1, vector at week 3) is listed as 31 days. Further, the “Efficacy as single agents at the doses and schedules used” value in test [1] was “efficacious”.
In the case of Bevacizumab, in the test with recurrent ovarian cancer, the Responsive rate is on record as 21%.

These data come from US10946094B2, “Adenoassociated viral mediated persistant anti-VEGF therapy for ovarian cancer” (Cornell University, priority 2015, dated 2021).
